Experimental data: ChEMBL document CHEMBL6109057, “Synthesis of harmaline N-9 derivatives and investigation of in vitro anticancer activity” (Bioorg Med Chem Lett, 2025)
Active and inactive are the calls of the source. The calls are words filed in the database; no cut-off is given here.

Assays:
HCT-116 [1] = assay: Antiproliferative activity against human HCT-116 cells assessed as reduction in cell viability at 50 uM measured after 24 hrs; format: functional, cell-based
MCF7 [2] = assay: Antiproliferative activity against human MCF7 cells assessed as reduction in cell viability at 50 uM measured after 24 hrs; format: functional, cell-based
MGC-803 [3] = assay: Antiproliferative activity against human MGC-803 cells assessed as reduction in cell viability at 50 uM measured after 24 hrs; format: functional, cell-based
MCF7 [4] = assay: Antiproliferative activity against human MCF7 cells assessed as reduction in cell viability measured after 24 hrs; format: functional, cell-based; conditions: MCF7, 24 h
MGC-803 [5] = assay: Antiproliferative activity against human MGC-803 cells assessed as cell viability at 50 uM measured after 24 hrs relative to control; format: functional; conditions: read-out: Activity
MGC-803 [6] = assay: Antiproliferative activity against human MGC-803 cells assessed as reduction in cell viability measured after 24 hrs; format: functional, cell-based; conditions: MGC-803, 24 h
MCF7 [7] = assay: Antiproliferative activity against human MCF7 cells assessed as cell viability at 50 uM measured after 24 hrs relative to control; format: functional; conditions: read-out: Activity
HCT-116 [8] = assay: Antiproliferative activity against human HCT-116 cells assessed as reduction in cell viability measured after 24 hrs; format: functional, cell-based; conditions: HCT-116, 24 h
HCT-116 [9] = assay: Antiproliferative activity against human HCT-116 cells assessed as cell viability at 50 uM measured after 24 hrs relative to control; format: functional; conditions: read-out: Activity
MGC-803 [10] = assay: Effect on metabolic changes in human MGC-803 cells assessed as down regulation of AMP level at 4 uM by 1H-NMR analysis; format: functional, cell-based
MGC-803 [11] = assay: Antimigratory activity against human MGC-803 cells assessed as migration rate at 5 uM measured after 48 hrs scratch assay (reference value: 63 +/- 1.61%); format: functional
MGC-803 [12] = assay: Effect on metabolic changes in human MGC-803 cells assessed as down regulation of creatine level at 4 uM by 1H-NMR analysis; format: functional, cell-based
MGC-803 [13] = assay: Antimigratory activity against human MGC-803 cells assessed as increase in aggregated dead cells at 10 uM measured after 24 hrs by scratch assay; format: functional, cell-based
[14] = Inhibition of cell clone formation in human MGC-803 cells assessed as percentage of area of cell clones at 2.5 uM (reference value: 1 +/- 0.02%); format: functional; set-up: scale not given: the % may be the effect or the level left
MGC-803 [15] = assay: Effect on metabolic changes in human MGC-803 cells assessed as down regulation of taurine level at 4 uM by 1H-NMR analysis; format: functional, cell-based
MGC-803 [16] = assay: Antimigratory activity against human MGC-803 cells assessed as increase in number of floating cells at 10 uM measured after 24 hrs by scratch assay; format: functional, cell-based
[17] = Cytotoxicity against HEK293FT cells assessed as reduction in cell viability measured after 24 hrs; format: toxicity, cell-based; conditions: human
MGC-803 [18] = assay: Antimigratory activity against human MGC-803 cells assessed as migration rate at 2.5 uM measured after 24 hrs scratch assay (reference value: 40.72 +/- 0.86%); format: functional
MGC-803 [19] = assay: Effect on metabolic changes in human MGC-803 cells assessed as down regulation of ADP level at 4 uM by 1H-NMR analysis; format: functional, cell-based
[20] = Inhibition of cell clone formation in human MGC-803 cells assessed as percentage of area of cell clones at 1.5 uM (reference value: 1 +/- 0.02%); format: functional; set-up: scale not given: the % may be the effect or the level left
MGC-803 [21] = assay: Effect on metabolic changes in human MGC-803 cells assessed as down regulation of NAD+ level at 4 uM by 1H-NMR analysis; format: functional, cell-based
MGC-803 [22] = assay: Effect on metabolic changes in human MGC-803 cells assessed as down regulation of choline phosphate level at 4 uM by 1H-NMR analysis; format: functional, cell-based
MGC-803 [23] = assay: Antimigratory activity against human MGC-803 cells assessed as increase in large number of dead cells at 10 uM measured after 48 hrs by scratch assay; format: functional, cell-based
[24] = Inhibition of cell clone formation in human MGC-803 cells assessed as percentage of area of cell clones at 1 uM (reference value: 1 +/- 0.02%); format: functional; set-up: scale not given: the % may be the effect or the level left
MGC-803 [25] = assay: Effect on metabolic changes in human MGC-803 cells assessed as upregulation of leucine level at 4 uM by 1H-NMR analysis; format: functional, cell-based
MGC-803 [26] = assay: Effect on metabolic changes in human MGC-803 cells assessed as upregulation of glycine level at 4 uM by 1H-NMR analysis; format: functional, cell-based
MGC-803 [27] = assay: Effect on metabolic changes in human MGC-803 cells assessed as down regulation of GSH level at 4 uM by 1H-NMR analysis; format: functional, cell-based
MGC-803 [28] = assay: Antimigratory activity against human MGC-803 cells assessed as migration rate at 2.5 uM measured after 48 hrs scratch assay (reference value: 63 +/- 1.61%); format: functional
MGC-803 [29] = assay: Antimigratory activity against human MGC-803 cells assessed as migration rate at 5 uM measured after 24 hrs scratch assay (reference value: 40.72 +/- 0.86%); format: functional
MGC-803 [30] = assay: Effect on metabolic changes in human MGC-803 cells assessed as down regulation of aspartic acid level at 4 uM by 1H-NMR analysis; format: functional, cell-based
4T1 = assay: Antiproliferative activity against mouse 4T1 cells assessed as reduction in cell viability measured after 24 hrs by MTT assay; format: functional, cell-based; conditions: 4T1, 24 h
HepG2 = assay: Antiproliferative activity against human HepG2 cells assessed as reduction in cell viability measured after 48 hrs by 3-(4,5-dimethylthiazol-2-yl)-2,5-diphenyltetrazolium bromide assay; format: functional, cell-based; conditions: HepG2, 48 h
SGC-7901 = assay: Antiproliferative activity against human SGC-7901 cells assessed as reduction in cell viability measured after 48 hrs by MTT assay; format: functional, cell-based; conditions: SGC-7901, 48 h
HeLa = assay: Antiproliferative activity against human HeLa cells assessed as reduction in cell viability measured after 48 hrs by 3-(4,5-dimethylthiazol-2-yl)-2,5-diphenyltetrazolium bromide assay; format: functional, cell-based
A549 = assay: Antiproliferative activity against human A549 cells assessed as reduction in cell viability measured after 48 hrs by MTT assay; format: functional, cell-based; conditions: A549, 48 h
U-87 MG [31] = assay: Antiproliferative activity against human U87 cells assessed as reduction in cell viability measured after 48 hrs; format: functional, cell-based, U-87MG ATCC
U-87 MG [32] = assay: Antiproliferative activity against human U87 cells assessed as reduction in cell viability measured after 24 hrs; format: functional, cell-based, U-87MG ATCC
NCI-H1299 = assay: Antiproliferative activity against human NCI-H1299 cells assessed as reduction in cell viability measured after 48 hrs by MTT assay; format: functional, cell-based; conditions: NCI-H1299, 48 h

COC(=O)CCCn1c2c(c3ccc(OC)cc31)CCN=C2C
Activity (HCT-116 [1]): Active
Activity (MCF7 [2]): Active
Activity (MGC-803 [3]): Active

COc1ccc2c3c(n(C/C=C/c4ccccc4)c2c1)C(C)=NCC3
Activity (HCT-116 [1]): Active
Activity (MCF7 [2]): Active
Activity (MGC-803 [3]): Active

COc1ccc2c3c(n(CCCCCBr)c2c1)C(C)=NCC3
Activity (HCT-116 [1]): Active
Activity (MCF7 [2]): Active
Activity (MGC-803 [3]): Active

COc1ccc2c3c(n(CCCCBr)c2c1)C(C)=NCC3
Activity (HCT-116 [1]): Active
Activity (MCF7 [2]): Active
Activity (MGC-803 [3]): Active

COc1ccc2c3c(n(Cc4ccccc4F)c2c1)C(C)=NCC3
Activity (HCT-116 [1]): Active
Activity (MCF7 [2]): Active
Activity (MGC-803 [3]): Active

COc1ccc2c3c(n(Cc4ccc5ccccc5c4)c2c1)C(C)=NCC3
IC50 (MCF7 [4]): 11.9 µM
viability at 50 µM (MGC-803 [5]): < 10%
IC50 (MGC-803 [6]): 21.4 µM
viability at 50 µM (MCF7 [7]): < 10%
IC50 (HCT-116 [8]): 6.32 µM
viability at 50 µM (HCT-116 [9]): < 10%

COC(=O)CCn1c2c(c3ccc(OC)cc31)CCN=C2C
Activity (HCT-116 [1]): Active
Activity (MCF7 [2]): Active
Activity (MGC-803 [3]): Active

C=CCn1c2c(c3ccc(OC)cc31)CCN=C2C
Activity (HCT-116 [1]): Active
Activity (MCF7 [2]): Active
Activity (MGC-803 [3]): Active

COc1ccc2c3c(n(Cc4ccc(F)cc4)c2c1)C(C)=NCC3
Activity (HCT-116 [1]): Active
Activity (MCF7 [2]): Active
Activity (MGC-803 [3]): Active

COc1ccc2c3c(n(Cc4ccccc4)c2c1)C(C)=NCC3
Activity (HCT-116 [1]): Active
Activity (MCF7 [2]): Active
Activity (MGC-803 [3]): Active

COc1ccc2c3ccnc(C)c3n(CCCCCn3c4cc(OC)ccc4c4ccnc(C)c43)c2c1
viability at 50 µM (MGC-803 [5]): ~59%
viability at 50 µM (MCF7 [7]): ~35%
viability at 50 µM (HCT-116 [9]): ~31%

COc1ccc2c3c(n(Cc4ccccc4C)c2c1)C(C)=NCC3
Activity (HCT-116 [1]): Active
Activity (MCF7 [2]): Active
Activity (MGC-803 [3]): Active

COc1ccc2c3c(n(Cc4ccc(C)cc4)c2c1)C(C)=NCC3
Activity (HCT-116 [1]): Active
Activity (MCF7 [2]): Active
Activity (MGC-803 [3]): Active

COc1ccc2c3c(n(Cc4cccc(C)c4)c2c1)C(C)=NCC3
Activity (HCT-116 [1]): Active
Activity (MCF7 [2]): Active
Activity (MGC-803 [3]): Active

COc1ccc2c3c(n(CCCCCCBr)c2c1)C(C)=NCC3
IC50 (MCF7 [4]): 18.5 µM
viability at 50 µM (MGC-803 [5]): < 10%
IC50 (MGC-803 [6]): 15.4 µM
viability at 50 µM (MCF7 [7]): < 10%
IC50 (HCT-116 [8]): 8.95 µM
viability at 50 µM (HCT-116 [9]): < 10%

COc1ccc2c3c(n(CCCCCn4c5cc(OC)ccc5c5ccnc(C)c54)c2c1)C(C)=NCC3
Activity (MGC-803 [10]): Active
Activity (MGC-803 [11]): 33.65%
Activity (MGC-803 [12]): Active
IC50 (MCF7 [4]): 8.67 µM
Activity (MGC-803 [13]): Active
Activity [14]: 0.02%
Activity (MGC-803 [15]): Active
viability at 50 µM (MGC-803 [5]): < 10%
Activity (MGC-803 [16]): Active
IC50 at 24 h [17]: 47.6 µM
Activity (MGC-803 [18]): 25.5%
IC50 (MGC-803 [6]): 5.26 µM
Activity (MGC-803 [19]): Active
Activity [20]: 0.33%
Activity (MGC-803 [21]): Active
viability at 50 µM (MCF7 [7]): < 10%
Activity (MGC-803 [22]): Active
Activity (MGC-803 [23]): Active
Activity [24]: 0.56%
IC50 (HCT-116 [8]): 3.84 µM
Activity (MGC-803 [25]): Active
viability at 50 µM (HCT-116 [9]): < 10%
Activity (MGC-803 [26]): Active
Activity (MGC-803 [27]): Active
Activity (MGC-803 [28]): 44.14%
Activity (MGC-803 [29]): 20.76%
Activity (MGC-803 [30]): Active

COC(=O)Cn1c2c(c3ccc(OC)cc31)CCN=C2C
Activity (HCT-116 [1]): Active
Activity (MCF7 [2]): Active
Activity (MGC-803 [3]): Active

COc1ccc2c3c(n(CCCCCCn4c5cc(OC)ccc5c5ccnc(C)c54)c2c1)C(C)=NCC3
Activity (HCT-116 [1]): Active
Activity (MCF7 [2]): Active
Activity (MGC-803 [3]): Active

COc1ccc2c3c(n(CCCCn4c5cc(OC)ccc5c5ccnc(C)c54)c2c1)C(C)=NCC3
IC50 (MCF7 [4]): 18.7 µM
viability at 50 µM (MGC-803 [5]): < 10%
IC50 (MGC-803 [6]): 10.2 µM
viability at 50 µM (MCF7 [7]): < 10%
IC50 (HCT-116 [8]): 4.5 µM
viability at 50 µM (HCT-116 [9]): < 10%

COc1ccc2c3c([nH]c2c1)C(C)=NCC3 [HARMALINE]
viability at 50 µM (MGC-803 [5]): ~120%
IC50 (4T1): 30.9 µM
viability at 50 µM (MCF7 [7]): ~71%
IC50 (HepG2): 11.2 µM
IC50 (SGC-7901): 4.08 µM
IC50 (HeLa): 28 µM
IC50 (A549): 67.9 µM
viability at 50 µM (HCT-116 [9]): ~75%
IC50 (U-87 MG [31]): 127 µM
IC50 (U-87 MG [32]): 208 µM
IC50 (NCI-H1299): 48.2 µM

COc1ccc2c3c(n(CCc4ccc(F)cc4)c2c1)C(C)=NCC3
Activity (HCT-116 [1]): Active
Activity (MCF7 [2]): Active
Activity (MGC-803 [3]): Active

COc1ccc2c3c(n(Cc4cccc(F)c4)c2c1)C(C)=NCC3
Activity (HCT-116 [1]): Active
Activity (MCF7 [2]): Active
Activity (MGC-803 [3]): Active

COC(=O)CCCCn1c2c(c3ccc(OC)cc31)CCN=C2C
Activity (HCT-116 [1]): Active
Activity (MCF7 [2]): Active
Activity (MGC-803 [3]): Active

C#CCn1c2c(c3ccc(OC)cc31)CCN=C2C
Activity (HCT-116 [1]): Active
Activity (MCF7 [2]): Active
Activity (MGC-803 [3]): Active
